How the values were obtained:
[1] = test system: BT-549; test: NCI-60 single dose screen, sulforhodamine B; type: cell-based, human; conditions: Breast cancer BT-549; single dose 10^−5 M
Description: (§1) In this research, all of the newly synthesised quinazolinones were subjected to in vitro anticancer screening by the National Cancer Institute (USA) against 60 different human cell lines including leukaemia, non-small cell lung cancer, colon cancer, CNS cancer, melanoma, ovarian cancer, renal cancer, prostate cancer, and breast cancer. The tested compounds were evaluated at a single dose (10^−5 M). […] Regarding the benzenesulfonamide counterparts, the introduction of an electron-withdrawing group on the benzenesulfonamide moiety increased the inhibitory activity on the glioblastoma cell line SNB-75 as depicted by the chloro derivative 5c (GI% = 63.09) which was higher than that of the unsubstituted derivative 5a (GI% = 40.06) and the methyl derivative 5b (GI% = 33.03).
(§2) 1. Cytotoxicity screening against a panel of 60 human tumor cell lines
(§3) All the compounds were selected for NCI-60 Human Tumor Cell Lines Screen by the Developmental Therapeutics Program (DTP) at the National Cancer Institute (NCI), Maryland, USA. The operation of this screen utilizes 60 different human tumor cell lines, representing leukemia, non-small-cell lung cancer, colon cancer, CNS cancer, melanoma, ovarian cancer, renal cancer, prostate cancer and breas t cancer.
(§4) The compounds were supplied as dry powder and a single concentration is tested in all 60 cell lines at a single dose of 10 µM solution in dimethyl sulfoxide (DMSO) using Sulforhodamine B assay. Briefly, cells are seeded in 96 well plates at an appropriate density and incubated for 1 day. After 1 day, some of the plates are processed to determine the density time zero. To the remaining plates, compounds are added at 10 µM concentration. Plates are incubated a further 2 days, then fixed and staine d with sulphorhodamine B. Growth inhibition is calculated relative to cells without drug treatment and the time zero control. The use of a time zero control allows the determination of cell kill as well as net growth inhibition. […]

[2] = test system: M14; test: NCI-60 single dose screen, sulforhodamine B; type: cell-based, human; conditions: Melanoma M14; single dose 10^−5 M
Description: as §1, §2, §3, §4

[3] = test system: MDA-MB-435; test: NCI-60 single dose screen, sulforhodamine B; type: cell-based, human; conditions: Melanoma MDA-MB-435; single dose 10^−5 M
Description: as §1, §2, §3, §4

[4] = test system: UACC-62; test: NCI-60 single dose screen, sulforhodamine B; type: cell-based, human; conditions: Melanoma UACC-62; single dose 10^−5 M
Description: as §1, §2, §3, §4

[5] = test system: EKVX; test: NCI-60 single dose screen, sulforhodamine B; type: cell-based, human; conditions: Non-small cell lung cancer EKVX; single dose 10^−5 M
Description: as §1, §2, §3, §4

[6] = test system: MOLT-4; test: NCI-60 single dose screen, sulforhodamine B; type: cell-based, human; conditions: Leukaemia MOLT-4; single dose 10^−5 M
Description: as §1, §2, §3, §4

[7] = test system: ACHN; test: NCI-60 single dose screen, sulforhodamine B; type: cell-based, human; conditions: Renal cancer ACHN; single dose 10^−5 M
Description: as §1, §2, §3, §4

[8] = test system: OVCAR-3; test: NCI-60 single dose screen, sulforhodamine B; type: cell-based, human; conditions: Ovarian cancer OVCAR-3; single dose 10^−5 M
Description: as §1, §2, §3, §4

[9] = test system: COLO 205; test: NCI-60 single dose screen, sulforhodamine B; type: cell-based, human; conditions: Colon cancer COLO 205; single dose 10^−5 M
Description: as §1, §2, §3, §4

[10] = test system: PC-3; test: NCI-60 single dose screen, sulforhodamine B; type: cell-based, human; conditions: Prostate cancer PC-3; single dose 10^−5 M
Description: as §1, §2, §3, §4

[11] = test system: SNB-75; test: NCI-60 single dose screen, sulforhodamine B; type: cell-based, human; conditions: CNS cancer SNB-75; single dose 10^−5 M
Description: as §1, §2, §3, §4

[12] = test system: A498; test: NCI-60 single dose screen, sulforhodamine B; type: cell-based, human; conditions: Renal cancer A498; single dose 10^−5 M
Description: as §1, §2, §3, §4

[13] = test system: OVCAR-4; test: NCI-60 single dose screen, sulforhodamine B; type: cell-based, human; conditions: Ovarian cancer OVCAR-4; single dose 10^−5 M
Description: as §1, §2, §3, §4

[14] = test system: SNB-19; test: NCI-60 single dose screen, sulforhodamine B; type: cell-based, human; conditions: CNS cancer SNB-19; single dose 10^−5 M
Description: as §1, §2, §3, §4

[15] = test system: SF-295; test: NCI-60 single dose screen, sulforhodamine B; type: cell-based, human; conditions: CNS cancer SF-295; single dose 10^−5 M
Description: as §1, §2, §3, §4

[16] = test system: SR; test: NCI-60 single dose screen, sulforhodamine B; type: cell-based, human; conditions: Leukaemia SR; single dose 10^−5 M
Description: as §1, §2, §3, §4

[17] = test system: SF-268; test: NCI-60 single dose screen, sulforhodamine B; type: cell-based, human; conditions: CNS cancer SF-268; single dose 10^−5 M
Description: as §1, §2, §3, §4

[18] = test system: SW-620; test: NCI-60 single dose screen, sulforhodamine B; type: cell-based, human; conditions: Colon cancer SW-620; single dose 10^−5 M
Description: as §1, §2, §3, §4

[19] = test system: SF-539; test: NCI-60 single dose screen, sulforhodamine B; type: cell-based, human; conditions: CNS cancer SF-539; single dose 10^−5 M
Description: as §1, §2, §3, §4

[20] = test system: K-562; test: NCI-60 single dose screen, sulforhodamine B; type: cell-based, human; conditions: Leukaemia K-562; single dose 10^−5 M
Description: as §1, §2, §3, §4

[21] = test system: TK-10; test: NCI-60 single dose screen, sulforhodamine B; type: cell-based, human; conditions: Renal cancer TK-10; single dose 10^−5 M
Description: as §1, §2, §3, §4

[22] = test system: U251; test: NCI-60 single dose screen, sulforhodamine B; type: cell-based, human; conditions: CNS cancer U251; single dose 10^−5 M
Description: as §1, §2, §3, §4

[23] = test system: RPMI-8226; test: NCI-60 single dose screen, sulforhodamine B; type: cell-based, human; conditions: Leukaemia RPMI-8226; single dose 10^−5 M
Description: as §1, §2, §3, §4

[24] = test system: A549/ATCC; test: NCI-60 single dose screen, sulforhodamine B; type: cell-based, human; conditions: Non-small cell lung cancer A549/ATCC; single dose 10^−5 M
Description: as §1, §2, §3, §4

[25] = test system: HOP-92; test: NCI-60 single dose screen, sulforhodamine B; type: cell-based, human; conditions: Non-small cell lung cancer HOP-92; single dose 10^−5 M
Description: as §1, §2, §3, §4

[26] = test system: NCI-H226; test: NCI-60 single dose screen, sulforhodamine B; type: cell-based, human; conditions: Non-small cell lung cancer NCI-H226; single dose 10^−5 M
Description: as §1, §2, §3, §4

[27] = test system: NCI-H522; test: NCI-60 single dose screen, sulforhodamine B; type: cell-based, human; conditions: Non-small cell lung cancer NCI-H522; single dose 10^−5 M
Description: as §1, §2, §3, §4

[28] = test system: OVCAR-5; test: NCI-60 single dose screen, sulforhodamine B; type: cell-based, human; conditions: Ovarian cancer OVCAR-5; single dose 10^−5 M
Description: as §1, §2, §3, §4

[29] = test system: HCT-15; test: NCI-60 single dose screen, sulforhodamine B; type: cell-based, human; conditions: Colon cancer HCT-15; single dose 10^−5 M
Description: as §1, §2, §3, §4

[30] = test system: NCI-H322M; test: NCI-60 single dose screen, sulforhodamine B; type: cell-based, human; conditions: Non-small cell lung cancer NCI-H322M; single dose 10^−5 M
Description: as §1, §2, §3, §4

[31] = test system: UO-31; test: NCI-60 single dose screen, sulforhodamine B; type: cell-based, human; conditions: Renal cancer UO-31; single dose 10^−5 M
Description: as §1, §2, §3, §4

O=C(CNn1c(COc2ccccc2)nc2ccccc2c1=O)Nc1ccc(Cl)cc1 [Compound 4c, N-(4-chlorophenyl)-2-((4-oxo-2-(phenoxymethyl)quinazolin-3(4H)-yl)amino)acetamide]
GI% at 10^−5 M [1]: 12.12%
GI% at 10^−5 M [2]: – (– means GI < 10%)
GI% at 10^−5 M [3]: – (– means GI < 10%)
GI% at 10^−5 M [4]: 14.58%
GI% at 10^−5 M [5]: 19.01%
GI% at 10^−5 M [6]: 15.9%
GI% at 10^−5 M [7]: – (– means GI < 10%)
GI% at 10^−5 M [8]: – (– means GI < 10%)
GI% at 10^−5 M [9]: – (– means GI < 10%)
GI% at 10^−5 M [10]: 15.9%
GI% at 10^−5 M [11]: – (– means GI < 10%)
GI% at 10^−5 M [12]: 16.35%
GI% at 10^−5 M [13]: 11.8%
GI% at 10^−5 M [14]: – (– means GI < 10%)
GI% at 10^−5 M [15]: – (– means GI < 10%)
GI% at 10^−5 M [16]: 10.05%
GI% at 10^−5 M [17]: – (– means GI < 10%)
GI% at 10^−5 M [18]: – (– means GI < 10%)
GI% at 10^−5 M [19]: – (– means GI < 10%)
GI% at 10^−5 M [20]: 10.43%
GI% at 10^−5 M [21]: – (– means GI < 10%)
GI% at 10^−5 M [22]: – (– means GI < 10%)
GI% at 10^−5 M [23]: – (– means GI < 10%)
GI% at 10^−5 M [24]: – (– means GI < 10%)
GI% at 10^−5 M [25]: 29.33%
GI% at 10^−5 M [26]: 11.13%
GI% at 10^−5 M [27]: 24.21%
GI% at 10^−5 M [28]: – (– means GI < 10%)
GI% at 10^−5 M [29]: – (– means GI < 10%)
GI% at 10^−5 M [30]: – (– means GI < 10%)
melting point: 165 to 167 °C

O=c1c2ccccc2nc(COc2ccccc2)n1NS(=O)(=O)c1ccc(Cl)cc1 [Compound 5c, 4-chloro-N-(4-oxo-2-(phenoxymethyl)quinazolin-3(4H)-yl)benzenesulfonamide]
GI% at 10^−5 M [1]: – (– means GI < 10%)
GI% at 10^−5 M [2]: 25.84%
GI% at 10^−5 M [3]: 94.53%
GI% at 10^−5 M [31]: 37.25%
GI% at 10^−5 M [4]: 23.06%
GI% at 10^−5 M [5]: 25.19%
GI% at 10^−5 M [6]: 30.51%
GI% at 10^−5 M [7]: – (– means GI < 10%)
GI% at 10^−5 M [8]: – (– means GI < 10%)
GI% at 10^−5 M [9]: – (– means GI < 10%)
GI% at 10^−5 M [10]: 17.26%
GI% at 10^−5 M [11]: 63.09%
GI% at 10^−5 M [12]: 36.68%
GI% at 10^−5 M [13]: – (– means GI < 10%)
GI% at 10^−5 M [14]: 20.21%
GI% at 10^−5 M [15]: – (– means GI < 10%)
GI% at 10^−5 M [16]: 42.42%
GI% at 10^−5 M [17]: 11.40%
GI% at 10^−5 M [18]: 30.94%
GI% at 10^−5 M [19]: 13.14%
GI% at 10^−5 M [20]: 52.75%
GI% at 10^−5 M [21]: – (– means GI < 10%)
GI% at 10^−5 M [22]: 12.24%
GI% at 10^−5 M [23]: – (– means GI < 10%)
GI% at 10^−5 M [24]: 14.05%
GI% at 10^−5 M [26]: 17.00%
GI% at 10^−5 M [27]: 30.63%
GI% at 10^−5 M [28]: – (– means GI < 10%)
GI% at 10^−5 M [29]: 45.60%
GI% at 10^−5 M [30]: 17.13%
melting point: 208 to 210 °C
